Legend:
[1] = system: maize genotype A188; assay: Regeneration of transgenic plants after stable integration of boost gene constructs including Pat-Tdt; assay type: cell-based; conditions: construct including Pat-Tdt
From the text: This strong boost effect on the level of the embryo was also effective to the efficiency of regeneration of whole transgenic plant.

[2] = system: maize A188 plants; assay: Phenotype of adult plants regenerated from stable transformation of A188; assay type: in vivo; conditions: stable transgenic integration, A188, compared to normal A188 plants (FIG. 13)
[3] = system: maize A188 immature embryos; assay: Embryogenic structure induction after transient co-bombardment of boost gene constructs; assay type: cell-based; conditions: 1 month after bombardment, co-bombarded with Tdt (FIG. 12)
Description: At 9-12 days post pollination, maize ears (i.e. A188 or Hi II) with immature embryos having a size of 0.8 to 1.8 mm, preferably 1.0-1.5 mm, were harvested. The ears were sterilized with 70% ethanol for 10-15 minutes. After brief air drying in a laminar hood, the top ˜⅓ of the kernels were removed from the ears with a shark scalpel, and the immature embryos were pulled out of the kernels carefully with a spatula. The fresh isolated embryos were placed onto the bombardment target area in an osmotic medium plate (see below) with scutellum-side up. The plates were wrapped with parafilm and incubated at 25° C. in the dark for 4 hours before bombardment. […]
After bombardment, the embryos remained on the osmotic medium for another 16 hours. Transient transformation was examined using a fluorescence microscope for the tDT expression at excitation maximum 554 nm and emission maximum 581 nm 16-20 hours after bombardment. The embryos with dense fluorescent signals under a fluorescence microscope (FIG. 9) were selected and transferred from N6OSM onto a N6-5Ag plate (˜15 embryos per plate) with scutellum-face-up for callus induction (see below). […]
The embryos with dense fluorescent signals under a fluorescence microscope (FIG. 9) were selected and transferred from N6OSM onto N6-5Ag for embryonic callus induction. […] Embryogenic callus induction was monitored by observation under a dissection microscope. […]

[4] = system: maize WUS2 promoter; assay: Maize WUS2 promoter tDT report construct co-bombarded with boost factor; assay type: cell-based; conditions: for activation of maize WUS2 promoter / gene: transient co-bombardment in immature embryos and leaves
From the text: Homeobox domain transcriptional factor WUSCHEL (WUS) plays an important role in establishing and maintaining of shoot meristem. To identify boost factors that promote endogenous WUS2 expression, the maize WUSCHEL 2 promoter report construct (pAMK-ZmWUS2-tDT-noT) (SEQ ID NO: 29; FIG. 16) was used to illustrate maize WUS2 promoter activity. The maize WUS2 promoter (pZmWUS2) drove expression of the tDT report gene in this report construct (FIG. 16). The WUS2 promoter report construct was co-bombarded with boost factors individually in maize immature embryos and leaf segments.
Fresh leaf segments of 1-2 cm in length were prepared from the in vitro-cultured maize A188 seedling of 10-14 days old, and placed on the Osmotic medium with abaxial side up for 4 hours. For co-bombardment, two plasmids (100 ng of ZmWUS2 promoter report (FIG. 16) and 100 ng of boost construct, e.g. TaRKD4 (FIG. 5)) were premixed and coated onto 100 μg of gold particles size 0.4 μm. Immature embryo preparation, bombardment, and post-bombardment culturing were carried out as described in Example 1 and Example 2. Red fluorescence showing tDT expression was monitored using a fluorescent microscope started at 16 hours after bombardment.

[5] = system: maize Hi II immature embryos; assay: Stable transformation frequency of co-delivered tDT report gene without selection; assay type: cell-based; conditions: transient expression, 10 days after co-bombardment
Description: Maize embryo preparation, transient bombardment, and embryonic callus induction are described in Examples 1 and 2. The embryos were cultured in N6-5Ag medium at 27° C. in the dark for 14 days. tDT fluorescence was used to monitor embryogenic callus induction and stable transformation by observation under a fluorescent microscope. Specifically, the boost effect was measured by its capability to increase transformation frequency (TF) of the tDT report gene […] after bombardment without a selection.
The strong and uniformed tDT fluorescent signals from the emerging embryonic structures in FIG. 14 indicated integration and stable transformation of tDT gene. Stable transformation frequency is defined as the number of embryos with at least one stable tDT fluorescent structures induced from 100 embryos initially used. Stable transformation frequency was measured 10 days after bombardment.

[6] = system: maize Hi II genotype; assay: Stable transformation of boost gene in Hi II genotype and appearance of the transgenic plants; assay type: in vivo
From the text: Stable transformation of ZmPLT7 gene in Hi II genotype was successful.

[7] = A188 leaf segments, after bombardment, co-bombarded with pZmWUS2 report

| Substance | efficiency of regeneration of transgenic plants [1] | phenotype of produced transgenic plants [2] | quantification of embryonic structures with Tdt formation per embryo [3] | time at which tDT signal peaked [4, 7] | time at which tDT signal was detected [4, 7] | tDT red fluorescent signal ([4]; immature embryos, 44 hours after bombardment, compared to WUS promoter reporter only (weak signals)) | activation of maize WUS2 promoter / gene [4] | activation of maize WUS2 promoter / gene ([4]; listed as TaRKD4) | effect on stable transformation of co-delivered tDT report gene [5] | stable transformation of the boost gene [6] | appearance of transgenic plants ([6]; single construct, compared to normal A188 plants (FIG. 15)) |
| --- | --- | --- | --- | --- | --- | --- | --- | --- | --- | --- | --- |
| ZmWUS2: maize WUS2 gene expression construct driven by strong constitutive Brachypodium EF1 promoter (SEQ ID NO: 28; cDNA SEQ ID NO: 1) | transgenic plants at a low level of efficiency | without any detrimental phenotype | slightly increased amount/development of embryonic structures per embryo |  |  |  |  |  |  |  |  |
| wheat RKD4: wheat RKD4 gene, maize-codon optimized, expression construct driven by Brachypodium EF1 promoter (SEQ ID NO: 34) |  |  |  | around 44 hours | around 36 hours | extremely strong red fluorescent signals | strongly activate maize WUS2 genes | activates maize WUS2 promoter |  |  |  |
| ZmPLT7: maize PLT7 gene expression construct driven by strong constitutive Brachypodium EF1 promoter (SEQ ID NO: 27; cDNA SEQ ID NO: 3) | no transgenic plants have been produced successfully |  | slightly increased amount/development of embryonic structures per embryo |  |  |  |  |  | promotes stable transformation frequency | successful | comparable appearance than the normal A188 maize plants |

Source: patent US12146142B2, “Methods for improving genome engineering and regeneration in plant II” (KWS SAAT SE & Co. KGaA, priority 2018, dated 2024)
